{"source": "patent US20250041433A1", "about": "“PROTEIN-ANTIVIRAL COMPOUND CONJUGATES” (REGENERON PHARMACEUTICALS, INC., priority 2021, published 2025)", "system": "H1N1 A/Puerto Rico/08/1934-GFP influenza virus", "test": "organism not typed", "assay_type": "cell-based, H1N1 A/Puerto Rico/08/1934 influenza virus", "conditions": "for IC50: MDCK, 20 h, read-out: Antiviral activity of VX-787 free payloads IC50; for antiviral activity of VX-787 derivatives (in words): free payloads"}
{"compound": "O=C(O)[C@H]1C2CCC(CC2)[C@@H]1Nc1nc(-c2c(CO)[nH]c3ncc(F)cc23)ncc1F", "note": "[Compound 15]", "values": [{"measurement": "IC50", "value": 240, "unit": "nM"}, {"measurement": "antiviral activity of VX-787 derivatives (in words)", "value": "displayed antiviral activity"}]}
{"compound": "O=C(NO)[C@H]1C2CCC(CC2)[C@@H]1Nc1nc(-c2c[nH]c3ncc(F)cc23)ncc1F", "note": "[Compound 20a]", "values": [{"measurement": "IC50", "value": 3.77, "unit": "nM"}, {"measurement": "antiviral activity of VX-787 derivatives (in words)", "value": "displayed antiviral activity"}]}
{"compound": "O=C(NO)[C@H]1C2CCC(CC2)[C@@H]1Nc1nc(-c2c[nH]c3ncc(F)cc23)nc2sccc12", "note": "[Compound 20b]", "values": [{"measurement": "IC50", "value": 9.64, "unit": "nM"}, {"measurement": "antiviral activity of VX-787 derivatives (in words)", "value": "displayed antiviral activity"}]}
{"compound": "Cn1ccc2c(N[C@H]3C4CCC(CC4)[C@@H]3C(=O)NO)nc(-c3c[nH]c4ncc(F)cc34)nc21", "note": "[Compound 20c]", "values": [{"measurement": "IC50", "value": 13.8, "unit": "nM"}, {"measurement": "antiviral activity of VX-787 derivatives (in words)", "value": "displayed antiviral activity"}]}
{"compound": "O=C(NO)[C@H]1C2CCC(CC2)[C@@H]1Nc1nc(-c2n[nH]c3ncc(F)cc23)ncc1F", "note": "[Compound 57]", "values": [{"measurement": "IC50", "value": 2, "unit": "nM"}]}
{"compound": "O=C(NO)[C@H]1C2CCC(CC2)[C@@H]1Nc1nc(-c2n[nH]c3ncc(F)cc23)nc2sccc12", "note": "[Compound 62]", "values": [{"measurement": "IC50", "value": 2.19, "unit": "nM"}]}
